{"source": "BindingDB's records for doi:10.1016/j.bmcl.2011.01.001", "about": "(Abbott Laboratories, 2011)", "target": "Aurora kinase A (Homo sapiens) (UniProt O14965)", "sequence (O14965 whole entry, looked up)": "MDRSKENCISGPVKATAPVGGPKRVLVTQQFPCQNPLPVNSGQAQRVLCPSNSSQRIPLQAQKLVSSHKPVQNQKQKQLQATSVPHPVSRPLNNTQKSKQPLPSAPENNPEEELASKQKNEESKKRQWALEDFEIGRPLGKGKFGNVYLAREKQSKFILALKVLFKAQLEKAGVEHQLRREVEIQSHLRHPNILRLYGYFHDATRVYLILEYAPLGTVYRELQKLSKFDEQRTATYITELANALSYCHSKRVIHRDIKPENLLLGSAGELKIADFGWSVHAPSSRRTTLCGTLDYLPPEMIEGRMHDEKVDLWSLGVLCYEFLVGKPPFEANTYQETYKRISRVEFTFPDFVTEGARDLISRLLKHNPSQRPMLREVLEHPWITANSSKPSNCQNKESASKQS", "assay": "Inhibition of aurora 2", "note": "pKi: −log10 of the molar value."}
{"molecule": "c1ccc(-c2c(-c3ccc4[nH]ncc4c3)nc3ncccn23)cc1", "note": "[2-(1H-indazol-5-yl)-3-phenylimidazo[1,2-a]pyrimidine]", "values": [{"measurement": "pKi", "value": "< 5.31"}]}
{"molecule": "CN(C)CCn1cnc(-c2ccc(F)cc2)c1-c1ccc2[nH]ncc2c1", "note": "[2-(4-(4-fluorophenyl)-5-(1H-indazol-5-yl)-1H-imidazol-1-yl)-N,N-dimethylethanamine]", "values": [{"measurement": "pKi", "value": "< 5.31"}]}
{"molecule": "Cc1nc(-c2ccc3[nH]ncc3c2)cs1", "note": "[4-(1H-indazol-5-yl)-2-methylthiazole]", "values": [{"measurement": "pKi", "value": 5.35}]}
{"molecule": "c1ccc(Nc2nc(-c3ccc4[nH]ncc4c3)c(-c3ccccc3)s2)cc1", "note": "[4-(1H-indazol-5-yl)-N,5-diphenylthiazol-2-amine]", "values": [{"measurement": "pKi", "value": "< 5.31"}]}
{"molecule": "c1ccc(CCNc2nc(-c3ccc4[nH]ncc4c3)cs2)cc1", "note": "[4-(1H-indazol-5-yl)-N-phenethylthiazol-2-amine]", "values": [{"measurement": "pKi", "value": 6.09}]}
{"molecule": "Nc1nc(-c2ccc3[nH]ncc3c2)cs1", "note": "[4-(1H-indazol-5-yl)thiazol-2-amine]", "values": [{"measurement": "pKi", "value": 5.67}]}
{"molecule": "Fc1ccc(-c2ncn(CCCN3CCOCC3)c2-c2ccc3[nH]ncc3c2)cc1", "note": "[4-(3-(4-(4-fluorophenyl)-5-(1H-indazol-5-yl)-1H-imidazol-1-yl)propyl)morpholine]", "values": [{"measurement": "pKi", "value": "< 5.31"}]}
{"molecule": "Fc1ccc(-c2ncn(C3CCN(Cc4ccccc4)C3)c2-c2ccc3[nH]ncc3c2)cc1", "note": "(centres undefined) [5-(1-(1-benzylpyrrolidin-3-yl)-4-(4-fluorophenyl)-1H-imidazol-5-yl)-1H-indazole]", "values": [{"measurement": "pKi", "value": "< 5.31"}]}
{"molecule": "Clc1ccc(Nc2c(-c3ccc4[nH]ncc4c3)nc3ncccn23)cc1", "note": "[N-(4-chlorophenyl)-2-(1H-indazol-5-yl)imidazo[1,2-a]pyrimidin-3-amine]", "values": [{"measurement": "pKi", "value": 5.55}]}
{"molecule": "c1ccc(CNc2nc(-c3ccc4[nH]ncc4c3)c(-c3ccccc3)s2)cc1", "note": "[N-benzyl-4-(1H-indazol-5-yl)-5-phenylthiazol-2-amine]", "values": [{"measurement": "pKi", "value": "< 5.31"}]}
{"molecule": "CCCCNc1c(-c2ccc3[nH]ncc3c2)nc2ncccn12", "note": "[N-butyl-2-(1H-indazol-5-yl)imidazo[1,2-a]pyrimidin-3-amine]", "values": [{"measurement": "pKi", "value": "< 5.31"}]}
{"molecule": "c1cn2c(NC3CCCCC3)c(-c3ccc4[nH]ncc4c3)nc2cn1", "note": "[N-cyclohexyl-2-(1H-indazol-5-yl)imidazo[1,2-a]pyrazin-3-amine]", "values": [{"measurement": "pKi", "value": 5.68}]}
{"molecule": "c1ccn2c(NC3CCCCC3)c(-c3ccc4[nH]ncc4c3)nc2c1", "note": "[N-cyclohexyl-2-(1H-indazol-5-yl)imidazo[1,2-a]pyridin-3-amine]", "values": [{"measurement": "pKi", "value": 5.06}]}
{"molecule": "CCNc1nc(-c2ccc3[nH]ncc3c2)cs1", "note": "[N-ethyl-4-(1H-indazol-5-yl)thiazol-2-amine]", "values": [{"measurement": "pKi", "value": 5.47}]}
